Assay results as given in publication PMC3466219 (PLoS ONE, 2012).
“And” between values parts separate entries of the source, which are not always exact repeats. Equal values may be shown once. Read-outs that look alike come from different tables or passages of the source. Each block holds one molecule with its values, some of them ahead of it.

Tests used:
Tip60 = Tip60 (Homo sapiens, UniProt Q92993); assay: In vitro HAT assay, Tip60; conditions: for inhibition at 100 µM: read-out: Tip60 % inhibition at 100 µM; for Tip60 inhibitory activity (in words): in vitro HAT assay
Chain of Tip60 (Q92993 whole entry): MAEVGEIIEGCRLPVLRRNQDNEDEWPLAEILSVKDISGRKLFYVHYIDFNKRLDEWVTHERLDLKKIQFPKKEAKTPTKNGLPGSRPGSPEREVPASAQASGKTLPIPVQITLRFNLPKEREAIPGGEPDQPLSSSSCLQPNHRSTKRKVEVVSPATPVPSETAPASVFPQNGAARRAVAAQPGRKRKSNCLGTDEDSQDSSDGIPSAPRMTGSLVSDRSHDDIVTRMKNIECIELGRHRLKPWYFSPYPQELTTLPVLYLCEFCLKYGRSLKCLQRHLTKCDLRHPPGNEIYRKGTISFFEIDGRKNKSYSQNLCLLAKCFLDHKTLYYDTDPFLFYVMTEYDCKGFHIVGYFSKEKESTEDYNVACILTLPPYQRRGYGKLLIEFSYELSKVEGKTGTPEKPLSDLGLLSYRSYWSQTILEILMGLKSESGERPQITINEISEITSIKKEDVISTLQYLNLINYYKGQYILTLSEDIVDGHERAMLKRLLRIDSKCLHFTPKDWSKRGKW

[1] = system: acetylated histone H4K16, H3K14 and H4K8 in LNCaP cells; assay: Western blotting of histone acetylation in LNCaP cells; conditions: Western blot
[2] = system: Tip60 levels in LNCaP cells; type: cell-based; conditions: increasing concentrations, 24 hours, Western blot
From the text: Representative blots are shown for duplicate experiments.

GCN5 = GCN5 (Homo sapiens, UniProt Q92830); assay: In vitro HAT assay, GCN5; type: biochemical
Chain of GCN5 (Q92830 whole entry, species assumed): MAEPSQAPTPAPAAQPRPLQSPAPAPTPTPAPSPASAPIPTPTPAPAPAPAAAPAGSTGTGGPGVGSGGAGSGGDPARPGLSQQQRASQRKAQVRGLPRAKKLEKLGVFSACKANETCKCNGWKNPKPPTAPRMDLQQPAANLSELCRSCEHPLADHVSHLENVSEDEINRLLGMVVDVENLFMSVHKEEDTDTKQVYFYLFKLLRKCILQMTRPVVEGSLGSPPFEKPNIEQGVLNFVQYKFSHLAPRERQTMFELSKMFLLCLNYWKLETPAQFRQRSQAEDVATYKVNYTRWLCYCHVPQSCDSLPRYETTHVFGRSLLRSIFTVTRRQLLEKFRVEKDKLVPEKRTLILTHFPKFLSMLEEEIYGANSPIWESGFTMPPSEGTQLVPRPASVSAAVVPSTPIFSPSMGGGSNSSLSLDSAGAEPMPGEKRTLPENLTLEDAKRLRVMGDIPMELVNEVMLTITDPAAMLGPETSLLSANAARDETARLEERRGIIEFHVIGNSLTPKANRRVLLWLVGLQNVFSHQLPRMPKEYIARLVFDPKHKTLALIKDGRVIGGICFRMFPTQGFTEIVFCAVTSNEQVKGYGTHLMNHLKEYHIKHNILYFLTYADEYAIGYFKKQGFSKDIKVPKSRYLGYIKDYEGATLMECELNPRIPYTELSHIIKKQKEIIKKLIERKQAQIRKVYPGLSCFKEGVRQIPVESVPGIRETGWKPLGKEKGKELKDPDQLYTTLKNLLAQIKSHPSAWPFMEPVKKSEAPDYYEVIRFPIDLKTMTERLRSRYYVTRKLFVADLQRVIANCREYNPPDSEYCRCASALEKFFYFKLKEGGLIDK
Description: (§1) Assays were performed in quadruplicate.

p300 = molecular target: T1, p300 (Homo sapiens, UniProt Q09472); assay: In vitro HAT assay, p300; type: biochemical; conditions: individual IC50 values
T1 sequence (Q09472 1287-1663 limits assumed): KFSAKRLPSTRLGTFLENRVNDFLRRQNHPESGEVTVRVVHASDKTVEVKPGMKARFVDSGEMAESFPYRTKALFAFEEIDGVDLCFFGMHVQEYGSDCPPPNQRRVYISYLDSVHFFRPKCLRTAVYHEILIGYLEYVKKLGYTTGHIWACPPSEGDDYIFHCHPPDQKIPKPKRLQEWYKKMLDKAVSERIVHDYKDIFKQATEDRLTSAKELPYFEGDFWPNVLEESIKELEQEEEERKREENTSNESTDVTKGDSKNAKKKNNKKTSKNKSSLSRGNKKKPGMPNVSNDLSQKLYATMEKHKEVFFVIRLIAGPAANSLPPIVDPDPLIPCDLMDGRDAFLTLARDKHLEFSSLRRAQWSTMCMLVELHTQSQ
Description: as §1
(§2) Purification of recombinant HAT enzymes (GST-tagged)- Expression constructs, pGEX-p300 and pGEX-PCAF, obtained from Dr Andrew Bannister (Cambridge Cancer Centre, UK), were transformed into XA90 Escherichia coli cells. A single colony was selected and grown to an OD 0.5 IPTG (1 mM) induction was carried out for 4 hours then cell pellets were collected, lysed, and sonicated. Supernatants were then passed through glutathione Sepharose 4B (GE Healthcare) and purified protein was eluted with 50 mM Tris-HCl, 10 mM reduced glutathione, pH 8. Eluted fractions were tested for enzymatic activity by HAT assay.

PCAF = molecular target: T2, PCAF (Homo sapiens, UniProt Q92831); assay: In vitro HAT assay, PCAF; type: biochemical; conditions: individual IC50 values
T2 construct: GST; made in house; host or cells: XA90 Escherichia coli
T2 sequence (Q92831 whole entry, species assumed): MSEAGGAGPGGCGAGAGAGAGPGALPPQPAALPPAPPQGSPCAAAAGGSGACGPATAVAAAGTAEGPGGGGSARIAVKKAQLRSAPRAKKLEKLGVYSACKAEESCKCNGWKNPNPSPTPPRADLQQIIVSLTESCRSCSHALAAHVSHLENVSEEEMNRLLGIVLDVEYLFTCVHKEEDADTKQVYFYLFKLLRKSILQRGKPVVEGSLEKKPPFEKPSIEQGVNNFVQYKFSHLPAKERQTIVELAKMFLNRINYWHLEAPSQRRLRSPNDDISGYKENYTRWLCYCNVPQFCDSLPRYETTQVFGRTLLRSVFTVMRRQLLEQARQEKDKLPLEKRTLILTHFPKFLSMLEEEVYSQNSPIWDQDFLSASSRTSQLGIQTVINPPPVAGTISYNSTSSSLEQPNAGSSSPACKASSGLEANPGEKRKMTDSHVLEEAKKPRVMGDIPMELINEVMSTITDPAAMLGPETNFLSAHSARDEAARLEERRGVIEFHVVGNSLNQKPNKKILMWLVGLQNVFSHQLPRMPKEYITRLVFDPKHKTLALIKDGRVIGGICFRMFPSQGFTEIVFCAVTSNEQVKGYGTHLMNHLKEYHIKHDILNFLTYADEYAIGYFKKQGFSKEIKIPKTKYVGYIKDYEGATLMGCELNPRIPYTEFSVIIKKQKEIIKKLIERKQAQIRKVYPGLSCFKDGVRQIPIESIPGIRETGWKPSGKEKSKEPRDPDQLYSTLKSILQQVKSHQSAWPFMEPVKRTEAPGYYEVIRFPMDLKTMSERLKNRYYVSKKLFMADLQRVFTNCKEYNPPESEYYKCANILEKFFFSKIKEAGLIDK
Description: as §1, §2

Compound: c1ccc(SSc2ccccn2)nc1 [2,2′-Dithiodipyridine]
IC50 (Tip60; Tip60 IC50, in vitro HAT assay, 3H acetyl-CoA, histones as substrates, individual IC50 values): 62 µM and 87 µM

Compound: c1cc(CCc2ccncc2)ccn1 [1,2-bis(4-pyridyl)ethane]
levels of acetylated histone H4K16, H3K14 and H4K8 ([1]; increasing concentrations for 2 hours, then TSA 2 µM for a further 4 hours): did not affect
Tip60 levels [2]: unaffected

Compound: CC(/C=C/C(=O)NO)=C\[C@@H](C)C(=O)c1ccc(N(C)C)cc1 [TSA, trichostatin A]
acetylation at H4K8, H4K16 and H3K14 ([1]; TSA alone 2 µM, 6 hours): acetylation was increased

Compound: N#CSc1ccns1 [Compound 6, 5-Thiocyanatoisothiazole]
inhibition at 100 µM (Tip60): 27%

Compound: c1ccc2sc(SSc3nc4ccccc4s3)nc2c1 [2,2′-Dithio(bis)benzothiazole]
inhibition at 100 µM (Tip60): 25%

Compound: Cc1cnsc1SC#N [Compound 4, 4-Methyl-5-thiocyanatoisothiazole]
inhibition at 100 µM (Tip60): 46%

Continued, values first:

IC50 (Tip60): 48 µM
Compound: c1cc(SSc2ccncc2)ccn1 [4,4′-Dithiodipyridine]

inhibition at 100 µM (Tip60): 4%
Compound: c1ccc(SSc2ccccc2)cc1 [Diphenyl disulphide]

Tip60 inhibitory activity (in words) (Tip60): inactive
inhibition at 100 µM (Tip60): 14%
Compound: Cc1cnsc1Br [Compound 1, 4-Methyl-5-bromoisothiazole]

IC50 (GCN5): > 100 µM
IC50 (Tip60): 4 µM
IC50 (p300): 58 µM and 43 µM
IC50 (PCAF): 33 µM and 25 µM
Compound: Cc1cnsc1SSc1sncc1C [Compound 5, 1,2-Bis(4-methylisothiazol-5-yl)disulfane]

inhibition at 100 µM (Tip60): 22%
Compound: Cc1cnsc1 [Compound 11, 4-Methylisothiazole]

IC50 (Tip60): > 100 µM
Tip60 inhibitory activity (in words) (Tip60): inactive
Compound: Cc1ccsc1Br [2-Bromo-3-methylthiophene]
